Laboratory results reported in patent US7897789B2, “Vitamin D receptor modulators” (Eli Lilly and Company, priority 2003, dated 2011).
pEC50, pIC50: −log10 of the molar value. “And” between values parts separate entries of the source, which are not always exact repeats. Equal values may be shown once. Read-outs that look alike come from different tables or passages of the source.

How the values were obtained:
DBF mice = experiment: Mouse hypercalcemia assay; settings: oral gavage for 6 days, serum ionized calcium 6 hours after last dosing; Table 1
Text: The Mouse Hypercalcemia Assay
The Mouse Hypercalcemia Assay is a six day hypercalcemia test for toxicity and selectivity.
(4) Materials and Method for the Mouse Hypercalcemia Assay:
Weanling, virus-antibody-free, five to six weeks old female DBF mice (Harlan, Indianapolis, Ind.) are used for all the studies. Animals are allowed to acclimate to local vivarium conditions for 2 days. […] The animals then are divided into groups with 4-5 mice per group. Different doses of test compounds prepared in 10% Ethanol and 90% sesame oil are administered to mice orally via gavage for 6 days. 1α-25(OH)2D3 0.5 μg/kg/d was also given to one group of mice as the positive control. […] Raw data of group differences is assessed by analysis of variance (ANOVA) using Fisher's protected least significant difference (PLSD) where the significance level was P<0.05.

VDR = biological target: T1, VDR (Homo sapiens, UniProt P11473); experiment: Caco-2 cell co-transfection assay (VDR CTF); format: cell-based; settings: Caco-2 cells, pGal4-VDR-LBD luciferase co-transfection; Table 1
T1 construct: the receptor expression vector pGal4-VDR-LBD (10 ng); expressed in transfected cells; host or cells: Caco-2 cells
T1 sequence (P11473 127-423 limits assumed): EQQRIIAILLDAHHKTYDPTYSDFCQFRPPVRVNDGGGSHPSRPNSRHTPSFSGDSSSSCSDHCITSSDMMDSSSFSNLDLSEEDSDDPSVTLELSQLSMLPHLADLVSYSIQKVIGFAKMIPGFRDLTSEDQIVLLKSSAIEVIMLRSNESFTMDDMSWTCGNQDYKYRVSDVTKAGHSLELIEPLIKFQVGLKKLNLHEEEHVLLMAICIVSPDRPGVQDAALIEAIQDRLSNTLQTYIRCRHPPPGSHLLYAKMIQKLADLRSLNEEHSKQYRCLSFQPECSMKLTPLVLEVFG
Procedure: 2. The Caco-2 Cell Co-Transfection Assay:
The Caco-2 cell assay is an indicator for the undesirable condition of hypercalcemia. This co-transfection assay is a surrogate assay for in vivo calcemic activity of VDR ligands. […] Preferred assay results are greater than 1000 nM.
(2) Materials and Method for The Caco-2 Cell Assay:
Caco-2 cells, grown in phenol red free, DMEM (Invitrogen, Carlsbad, Calif.) containing 10% charcoal-stripped FCS (Hyclone, Logan, Utah), were transfected with Fugene 6 reagent (Roche Diagnostics, Indianapolis, Ind.). Cells (5000/well) were plated 18 h before transfection in a 96 well plate. The Cells were transfected with Gal4-responsive reporter pFRLuc (150 ng, Stratagene, La Jolla Calif.) and the receptor expression vector pGal4-VDR-LBD (10 ng), along with Fugene 6 reagent (0.2 μl/well). The DNA-Fugene complex was formed by incubating the mixture for 30 min at room temperature. The cells were transfected in triplicate for 5 h, and treated with various concentrations of VDR ligands (form 0.01 nM to 10,000 nM concentration range) 18 h post-transfection. The luciferase activity was quantified using Steady-Glo reagent kit (Promega, Madison, Wis.) as per manufacturer's specifications.

IL-10 = experiment: Human IL-10 induction assay in PBMCs; format: cell-based; settings: PBMC
Text: 6. The IL-10 Induction Assay
This is an in vitro efficacy assay for psoriasis, abscess and adhesion. Psoriasis involves both keratinocytes and immune cells. IL-10 is a unique cytokine because it is anti-inflammatory and immunosuppressive. This assay tells us whether a VDRM is able to function as an agonist in PBMCs ([…]) or not.
(6) Materials and Method for Human IL-10 Induction Assay:
Isolation of Peripheral Blood Mononuclear Cells (PBMCs):
Stimulation of PBMC: • L. Prepare TPA in DMSO. • M. Dissolve PHA in water. • N. Plate TPA/PHA treated PBMCs in well plates. • O. Incubate.
Sample Collection and Assay: • S. Remove all the cells by centrifugation and assay the supernatant for IL-10 by immunoassay. • T. Perform IL-10 assay using anti-human IL-10 antibody coated beads, as described by the manufacturer (Linco Research Inc., St. Charles, Mo.). (8) CaT1 Assay

rat osteocalcin promoter = experiment: OCN (osteocalcin) promoter assay; format: cell-based; settings: RG-15 (ROS 17/2.8) cells, 48 hr treatment, Table 1
Procedure: 3. The OCN (Osteocalcin) Promoter Assay
The OCN Promoter Assay is an indicator and marker for osteoporosis. […] Preferred assay results are less than 50 nM.
(3) Materials and Method for the OCN Promoter Assay:
The activation of osteocalcin by VDR ligands was evaluated in a rat osteoblast-like cell line RG-15 (ROS 17/2.8) stably expressing rat osteocalcin promoter fused with luciferase reporter gene. […] Confluent RG-15 cells maintained in DMEM/F-12 medium (3:1) containing 5% FBS, 300 μg/ml G418 and at 37° C. under 5% CO2/95% air atmosphere were trypsinized (0.25% trypsin) and plated into white opaque 96-well cell culture plates (25000 cells/well). After 24 hr, cells (in DMEM/F-12 medium+2% FBS) were treated with various concentrations of compounds, dissolved in DMSO. The final DMSO concentration remained at 0.01% (v/v). After 48 hr treatment, the medium was removed, cells were lysed with 50 μl of lysis buffer (From Luciferase reporter assay system, Roche Diagnostics, Indianapolis, Ind.) and assayed for luciferase activity using the Luciferase Reporter Gene Assay kit from Boehringer Mannheim as per manufacturer's specifications.

RXR-VDR heterodimer = biological target: T2, RXR-VDR heterodimer (Homo sapiens, UniProt P11473); experiment: RXR-VDR heterodimerization assay (SaOS-2 cells); format: cell-based; settings: Gal4-RXR / VP16-VDR-LBD luciferase reporter, Table 1
T2 construct: Add the Gal4-RXR-DEF and VP16-VDR-LBD; expressed in transfected cells; host or cells: SaOS-2 cells
T2 sequence (P11473 127-423 limits assumed): T1 sequence (P11473 127-423 limits assumed)
T2 sequence (P19793 201-462 partner limits assumed): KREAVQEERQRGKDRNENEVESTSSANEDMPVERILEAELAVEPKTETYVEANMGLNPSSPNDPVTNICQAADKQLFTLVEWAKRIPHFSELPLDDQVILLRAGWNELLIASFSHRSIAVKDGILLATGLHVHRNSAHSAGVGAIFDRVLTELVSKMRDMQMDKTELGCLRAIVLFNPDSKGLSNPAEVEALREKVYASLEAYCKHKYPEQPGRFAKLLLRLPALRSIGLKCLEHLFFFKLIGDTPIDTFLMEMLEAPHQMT
Procedure: 1. The RXR-VDR HeterodimerAssay:
This assay provides the VDR activity of a test compound.
(1) Materials and Method for RXR-VDR Heterodimerization Assay:
Luciferase Assay Reagent: • Use Steady-Glo Luciferase Reagent from Promega (Cat #E2550) Consists of: a. E2533 Assay Substrate, lyopholized product and b. E2543 Assay Buffer. • Thaw at room temperature • Store Cell Harvesting Aspirate media from culture flask, rinse cells with HBSS and aspirate. Add trypsin and incubate. When cells appear detached, resuspend cells in growth media. Transfer into a new flask with fresh growth media for passaging the cells. Plate well plates and two extra plates A. Cell Count Mix the cell suspension using pipette Use Hematocytometer to count the cells Load cell suspension onto the hemocytometer chamber Count cells. […] In sterile flask add cell suspension to plating media. Mix. Add cells/well. Place the cells in the incubator. Cells should be about 75% confluent prior to transfection. DAY 2: Transfection Step 1: DNA and Media Add plain DMEM media to tubes for mixing the DNA Add the Reporter gene pFR-LUC Add the Gal4-RXR-DEF and VP16-VDR-LBD Step 2: FuGENE and Media Prepare plain DMEM media in a ubes for mixing FuGENE Add FuGENE 6 Transfection Reagent Incubate Step 3: FuGENE, DNA and Media Complex Add FuGENE Media complex from step 2 to DNA Media complex from step 1 Incubate Step 4: FuGENE, DNA and Media Complex to-well plate Add FuGENE-DNA-Media complex from step 3 to each plate Incubate. […] Day 4: Luciferase Assay Read the plates after drug treatment Remove part of media from all the wells and leave remainder Add Steady-Glo Luciferase Reagent mixture/wells Incubate Count each well using a Luminescence counter, Top Count NXT by Packard
Set a delay between plates to reduce the background.

KERtr cells = experiment: Keratinocyte proliferation assay; format: cell-based; settings: Homo sapiens
Procedure: 5. The Keratinocyte Proliferation Assay
This Assay is indicative for the treatment of psoriasis.
(5) The Keratinocyte Proliferation Assay:
KERtr cells (Human skin keratinocyte transformed with a retrovirus vector, obtained from ATCC) were plated in 96-well flat-bottomed plates (3000 cells/well) in 100 μl keratinocyte serum free medium supplemented with bovine pituitary extract in the absence of EGF (Life Technologies, Rockville, Md.) and incubated at 37° C. for two days. The cells were treated with various concentrations of VDR ligands (ten-fold serial dilution from 10,000 nM to 0.1 nM in triplicate), dissolved in 100 μl keratinocyte serum free medium supplemented with bovine pituitary extract in the absence of EGF and incubated at 37° C. for 72 hr. […] Potency values (IC50) values were determined as the concentration (nM) of compound that elicited a half-maximal response.

[1] = TPA/PHA treated human PBMCs, Table 2
[2] = 72 h, BrdU incorporation, Table 2, read-out: Kera. Prolif. IC50

Structure (SMILES) | Mouse Hypercal (DBF mice) [µg/kg/day] | EC50 (VDR) [nM] | pIC50 (IL-10; [1]) | pEC50 (rat osteocalcin promoter) | pEC50 (rat osteocalcin promoter; Rattus norvegicus, 48 h) | pEC50 (RXR-VDR heterodimer) | pIC50 (KERtr cells; [2]) | pIC50 (KERtr cells; comparison compounds, Table 4, read-out: Kera. Prolif. IC50) | pIC50 (IL-10; human PBMCs, comparison compounds, Table 4)
CCC(CC)(c1ccc(OCC(=O)C(C)(C)C)c(C)c1)c1ccc2cc(C(=O)O)sc2c1 [Ex. 1, 6-{1-[4-(3,3-dimethyl-2-oxo-butoxy)-3-methyl-phenyl]-1-ethyl-propyl}-benzo[b]thiophene-2-carboxylic acid] | <300 | 432 | 6.96 | 9.00 | 8.70 |  |  |  | 
CCC(CC)(c1ccc(OCC(O)C(C)(C)C)c(C)c1)c1ccc2cc(C(=O)O)sc2c1 (stereo not shown) [Ex. 2, 6-{1-ethyl-1-[4-(2-hydroxy-3,3-dimethyl-butoxy)-3-methyl-phenyl]-propyl}-benzo[b]thiophene-2-carboxylic acid] |  | 411 | 7.62 |  | 9.00 | 7.52 | 9.00 |  | 
CCC(CC)(c1ccc(OCC(=O)C(C)(C)C)c(C)c1)c1ccc2cc(C(=O)NCC(=O)O)sc2c1 [Ex. 5, [(6-{1-[4-(3,3-dimethyl-2-oxo-butoxy)-3-methyl-phenyl]-1-ethyl-propyl}-benzo[b]thiophene-2-carbonyl)-amino]-acetic acid] | >300 | 342 | 8.22 |  | 9.00 |  | 8.40 |  | 
CCC(CC)(c1ccc(OCC(O)C(C)(C)C)c(C)c1)c1ccc2cc(C(=O)NCC(=O)O)sc2c1 (stereo not shown) [Ex. 6, [(6-{1-ethyl-1-[4-(2-hydroxy-3,3-dimethyl-butoxy)-3-methyl-phenyl]-propyl}-benzo[b]thiophene-2-carbonyl)-amino]-acetic acid] |  | 331 | 8.40 |  |  |  | 8.40 |  | 
CCC(CC)(c1ccc(OCC(=O)C(C)(C)C)c(C)c1)c1cc2cc(C(=O)O)ccc2s1 [Ex 17, 2-{1-[4-(3,3-dimethyl-2-oxo-butoxy)-3-methyl-phenyl]-1-ethyl-propyl}-benzo[b]thiophene-5-carboxylic acid] | >300 | 631 |  | 8.52 | 8.40 | 6.57 and 7.29 | 6.39 |  | 
CCC(CC)(c1ccc(OCC(O)C(C)(C)C)c(C)c1)c1cc2cc(C(=O)O)ccc2s1 (stereo not shown) [Ex 18, 2-{1-ethyl-1-[4-(2-hydroxy-3,3-dimethyl-butoxy)-3-methyl-phenyl]-propyl}-benzo[b]thiophene-5-carboxylic acid] |  | 748 | 7.05 | 8.89 | 8.62 |  | 8.74 |  | 
CCC(CC)(c1ccc(OCC(O)C(C)(C)C)c(C)c1)c1cc2cc(C(=O)NCC(=O)O)ccc2s1 (stereo not shown) [Ex 20, [(2-{1-Ethyl-1-[4-(2-hydroxy-3,3-dimethyl-butoxy)-3-methyl-phenyl]-propyl}-benzo[b]thiophene-5-carbonyl)-amino]-acetic acid] |  | 314 | 6.41 |  | 8.30 | 7.62 | 7.01 |  | 
C=C1/C(=C\C=C2/CCC[C@]3(C)[C@@H]([C@H](C)/C=C/[C@@H](O)C4CC4)CC[C@@H]23)C[C@@H](O)C[C@@H]1O [FF, calcipotriol, reference compound] |  |  |  |  |  |  |  | 6.99 | 9.30
CCC(CC)(c1ccc(OCC(=O)C(C)(C)C)c(C)c1)c1ccc2cc(C(=O)N(C)C)sc2c1 [Ex. 3, 6-{1-[4-(3,3-Dimethyl-2-oxo-butoxy)-3-methyl-phenyl]-1-ethyl-propyl}-benzo[b]thiophene-2-carboxylic acid dimethylamide] |  | 869 | 6.45 |  |  | 6.35 and 7.17 | < 6.00 |  | 
CCC(CC)(c1ccc(OCC(=O)C(C)(C)C)c(C)c1)c1cc2cc(C(=O)N(C)C)ccc2s1 [Ex 21, 2-{1-[4-(3,3-Dimethyl-2-oxo-butoxy)-3-methyl-phenyl]-1-ethyl-propyl}-benzo[b]thiophene-5-carboxylic acid dimethylamide] | >1000 | 708 |  | 7.32 | 7.54 | 6.87 and 7.62 | 6.79 |  | 
CCC(CC)(c1ccc(OCC(O)C(C)(C)C)c(C)c1)c1cc2ccc(C(=O)O)cc2s1 (stereo not shown) [Ex. 8, 2-{1-Ethyl-1-[4-(2-hydroxy-3,3-dimethyl-butoxy)-3-methyl-phenyl]-propyl}-benzo[b]thiophene-6-carboxylic acid] |  | 409 | 7.82 |  |  |  | 9.00 |  | 
